Key:
Format in all cases: cell-based
[1] = biological target: T1, Peroxisome proliferator-activated receptor (Homo sapiens, UniProt P37231+Q07869+Q03181); test: (§1) Transactivation of PPAR transfected in human HepG2 cells after 20 hrs by PPAR-luciferase assay
T1 sequence (P37231 whole entry): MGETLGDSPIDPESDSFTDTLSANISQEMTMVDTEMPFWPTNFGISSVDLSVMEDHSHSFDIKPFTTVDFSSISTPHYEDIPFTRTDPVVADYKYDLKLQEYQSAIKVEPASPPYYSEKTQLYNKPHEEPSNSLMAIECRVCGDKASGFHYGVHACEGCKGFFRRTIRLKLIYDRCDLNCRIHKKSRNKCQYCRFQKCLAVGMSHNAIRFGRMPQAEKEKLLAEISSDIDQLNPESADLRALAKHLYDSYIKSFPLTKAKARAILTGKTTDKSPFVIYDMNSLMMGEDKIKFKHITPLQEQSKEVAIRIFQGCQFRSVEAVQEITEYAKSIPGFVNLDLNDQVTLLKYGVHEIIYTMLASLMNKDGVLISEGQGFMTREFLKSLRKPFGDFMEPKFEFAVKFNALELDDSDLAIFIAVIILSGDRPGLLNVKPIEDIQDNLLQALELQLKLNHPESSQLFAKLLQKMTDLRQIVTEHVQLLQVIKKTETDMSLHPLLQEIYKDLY
T1 sequence (Q07869 whole entry): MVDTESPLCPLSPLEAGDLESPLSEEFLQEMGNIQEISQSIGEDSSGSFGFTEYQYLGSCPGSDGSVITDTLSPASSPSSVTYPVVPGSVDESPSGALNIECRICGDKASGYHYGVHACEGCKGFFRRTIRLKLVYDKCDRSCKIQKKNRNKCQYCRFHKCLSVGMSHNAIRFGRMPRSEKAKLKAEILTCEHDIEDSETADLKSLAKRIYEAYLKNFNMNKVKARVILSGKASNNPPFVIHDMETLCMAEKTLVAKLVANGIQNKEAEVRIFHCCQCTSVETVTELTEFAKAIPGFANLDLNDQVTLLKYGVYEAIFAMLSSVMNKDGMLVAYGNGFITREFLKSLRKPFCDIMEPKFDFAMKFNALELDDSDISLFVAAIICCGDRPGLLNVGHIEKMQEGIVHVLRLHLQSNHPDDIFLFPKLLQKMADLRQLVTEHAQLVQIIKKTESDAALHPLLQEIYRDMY
T1 sequence (Q03181 whole entry): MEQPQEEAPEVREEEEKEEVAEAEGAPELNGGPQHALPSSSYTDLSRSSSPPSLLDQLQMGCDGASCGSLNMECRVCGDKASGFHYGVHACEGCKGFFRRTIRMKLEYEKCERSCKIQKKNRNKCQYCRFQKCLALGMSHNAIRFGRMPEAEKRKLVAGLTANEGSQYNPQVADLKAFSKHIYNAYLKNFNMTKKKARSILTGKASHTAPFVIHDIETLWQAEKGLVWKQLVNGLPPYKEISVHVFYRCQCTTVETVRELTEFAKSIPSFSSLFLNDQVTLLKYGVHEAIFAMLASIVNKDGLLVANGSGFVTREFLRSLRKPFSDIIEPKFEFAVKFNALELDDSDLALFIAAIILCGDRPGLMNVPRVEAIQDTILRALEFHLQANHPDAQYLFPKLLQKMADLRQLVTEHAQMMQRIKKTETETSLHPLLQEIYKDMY

HepG2 = test: Cytotoxicity against human HepG2 cells assessed as CCK8 after 24 hrs; conditions: hepg2, 24 h
[2] = biological target: T2, Peroxisome proliferator-activated receptor delta (Homo sapiens) (UniProt Q03181); test: Transactivation of human Gal4-PPARbeta/delta LBD transfected in human HepG2 cells assessed as stimulation at 10 uM after 20 hrs by luciferase reporter gene assay relative to vehicle-treated control
T2 sequence (whole entry): T1 sequence (Q03181 whole entry)

[3] = biological target: T3, Peroxisome proliferator-activated receptor gamma (Homo sapiens) (UniProt P37231); test: Transactivation of human Gal4-PPARgamma LBD transfected in human HepG2 cells assessed as stimulation at 10 uM after 20 hrs by luciferase reporter gene assay relative to vehicle-treated control
T3 sequence (whole entry): T1 sequence (P37231 whole entry)

[4] = biological target: T4, Peroxisome proliferator-activated receptor alpha (Homo sapiens) (UniProt Q07869); test: Transactivation of human Gal4-PPARalpha LBD transfected in human HepG2 cells assessed as stimulation at 20 uM after 20 hrs by luciferase reporter gene assay relative to vehicle-treated control
T4 sequence (whole entry): T1 sequence (Q07869 whole entry)

[5] = biological target: T3, Peroxisome proliferator-activated receptor gamma (Homo sapiens); test: Transactivation of human Gal4-PPARgamma LBD transfected in human HepG2 cells assessed as stimulation at 20 uM after 20 hrs by luciferase reporter gene assay relative to vehicle-treated control
[6] = biological target: T3, Peroxisome proliferator-activated receptor gamma (Homo sapiens); test: Transactivation of human Gal4-PPARgamma LBD transfected in human HepG2 cells assessed as stimulation at 5 uM after 20 hrs by luciferase reporter gene assay relative to vehicle-treated control
[7] = biological target: T4, Peroxisome proliferator-activated receptor alpha (Homo sapiens); test: Transactivation of human Gal4-PPARalpha LBD transfected in human HepG2 cells assessed as stimulation at 10 uM after 20 hrs by luciferase reporter gene assay relative to vehicle-treated control
[8] = biological target: T2, Peroxisome proliferator-activated receptor delta (Homo sapiens); test: Transactivation of human Gal4-PPARbeta/delta LBD transfected in human HepG2 cells assessed as stimulation at 5 uM after 20 hrs by luciferase reporter gene assay relative to vehicle-treated control
[9] = biological target: Peroxisome proliferator-activated receptor (Homo sapiens) (UniProt P37231+Q07869+Q03181); test: as §1
[10] = biological target: T2, Peroxisome proliferator-activated receptor delta (Homo sapiens); test: Transactivation of human Gal4-PPARbeta/delta LBD transfected in human HepG2 cells assessed as stimulation at 20 uM after 20 hrs by luciferase reporter gene assay relative to vehicle-treated control
[11] = biological target: T4, Peroxisome proliferator-activated receptor alpha (Homo sapiens); test: Transactivation of human Gal4-PPARalpha LBD transfected in human HepG2 cells assessed as stimulation at 5 uM after 20 hrs by luciferase reporter gene assay relative to vehicle-treated control
[12] = biological target: T2, Peroxisome proliferator-activated receptor delta (Homo sapiens); test: Transactivation of human Gal4-PPARbeta/delta LBD transfected in human HepG2 cells assessed as stimulation at 1 uM after 20 hrs by luciferase reporter gene assay relative to vehicle-treated control
[13] = biological target: T4, Peroxisome proliferator-activated receptor alpha (Homo sapiens); test: Transactivation of human Gal4-PPARalpha LBD transfected in human HepG2 cells assessed as stimulation at 1 uM after 20 hrs by luciferase reporter gene assay relative to vehicle-treated control

EC50 [1] [µM] | SMILES | Activity (HepG2) | also measured
> 50 | CCCCC/C=C\C/C=C\CCCCCCCC(=O)O[C@H]1C=C2[C@@H]3CC[C@H]([C@H](C)/C=C/[C@H](C)C(C)C)[C@@]3(C)CC[C@@H]2[C@@]2(C)CC[C@H](O)C[C@]12O | Non-toxic | –
8.2 | CCCCCCCC/C=C\CCCCCCCC(=O)O[C@H]1C2=C3CC[C@H]([C@H](C)/C=C/[C@H](C)C(C)C)[C@@]3(C)CC[C@@H]2[C@@]2(C)CC[C@H](O)C[C@@]23O[C@@H]13 | Non-toxic | Activity [2]: 102%; Activity [3]: 125%; Activity [4]: 314%; Activity [5]: 133%; Activity [6]: 114%; Activity [7]: 297%; Activity [8]: 100%; Activity [9]: Dose-dependent effect; Activity [10]: 112%; Activity [11]: 289%
18.7 | CCCCC/C=C\C/C=C\CCCCCCCC(=O)O[C@H]1CC[C@]2(C)[C@H]3CC[C@]4(C)[C@@H]([C@H](C)/C=C/[C@H](C)C(C)C)CC[C@H]4C3=C[C@H](O)[C@@]2(O)C1 | Non-toxic | –
> 50 | CCCCCCCCCCCCCCCC(=O)O[C@H]1CC[C@@]2(C)C(=CC=C3[C@@H]4CC[C@H]([C@H](C)/C=C/[C@H](C)C(C)C)[C@@]4(C)CC[C@@H]32)C1 | Non-toxic | –
– | CCCc1c(OCCCOc2ccc(OCC(=O)O)cc2)ccc(C(C)=O)c1O | – | Activity [12]: 288%
> 50 | CCCCCCCCCCCCCCCCCC(=O)O[C@H]1CC[C@@]2(C)C(=CC=C3[C@@H]4CC[C@H]([C@H](C)/C=C/[C@H](C)C(C)C)[C@@]4(C)CC[C@@H]32)C1 | Non-toxic | –
> 50 | CCCCCCCC/C=C\CCCCCCCC(=O)O[C@H]1C=C2[C@@H]3CC[C@H]([C@H](C)/C=C/[C@H](C)C(C)C)[C@@]3(C)CC[C@@H]2[C@@]2(C)CC[C@H](O)C[C@]12O | Non-toxic | –
22.3 | CCCCC/C=C\C/C=C\CCCCCCCC(=O)O[C@H]1CC[C@]2(C)[C@@]3(O)CC[C@]4(C)[C@@H]([C@H](C)/C=C/[C@H](C)C(C)C)CC[C@H]4C3=C[C@H](O)[C@@]2(O)C1 | Non-toxic | –
20.6 | CCCCCCCCCCCCCCCCCC(=O)O[C@H]1CC[C@]2(C)[C@H]3CC[C@]4(C)[C@@H]([C@H](C)/C=C/[C@H](C)C(C)C)CC[C@H]4C3=C[C@H](O)[C@@]2(O)C1 | Non-toxic | –
> 50 | CC/C=C\C/C=C\C/C=C\CCCCCCCC(=O)O[C@@H]1C=C2[C@@H]3CC[C@H]([C@H](C)/C=C/[C@H](C)C(C)C)[C@@]3(C)CC[C@@H]2[C@@]2(C)CC[C@H](O)C[C@]12O | Non-toxic | –
– | CC(C)(Oc1ccc(C2CC2(Cl)Cl)cc1)C(=O)O (centres undefined) | – | Activity [13]: 311%
> 50 | CCCCCCCCCCCCCCCC(=O)O[C@H]1C=C2[C@@H]3CC[C@H]([C@H](C)/C=C/[C@H](C)C(C)C)[C@@]3(C)CC[C@@H]2[C@@]2(C)CC[C@H](O)C[C@]12O | Non-toxic | –
6.4 | CCCCC/C=C\C/C=C\CCCCCCCC(=O)O[C@H]1C2=C3CC[C@H]([C@H](C)/C=C/[C@H](C)C(C)C)[C@@]3(C)CC[C@@H]2[C@@]2(C)CC[C@H](O)C[C@@]23O[C@@H]13 | Non-toxic | Activity [2]: 111%; Activity [3]: 156%; Activity [4]: 386%; Activity [5]: 162%; Activity [6]: 129%; Activity [7]: 346%; Activity [8]: 99.6%; Activity [9]: Dose-dependent effect; Activity [10]: 121%; Activity [11]: 309%

Reference: ChEMBL document CHEMBL3351253, “Sterol fatty acid esters from the mushroom Hericium erinaceum and their PPAR transactivational effects” (J Nat Prod, 2014)
